The values below are quoted from earlier work in US7557115B2, “Compounds, compositions, and methods” (Cytokinetics, Inc., priority 2002, dated 2009).

As a reminder, the GI50 is the concentration at which growth is held to half of that of the control.

The test system of the data set is A549 cells. The conditions noted are these: concentration that decreases rate of cell growth by fifty percent.

Turning to `COc1cccc2c1C(=O)c1c(O)c3c(c(O)c1C2=O)C[C@@](O)(C(=O)CO)C[C@@H]3O[C@H]1C[C@H](N)[C@H](O)[C@H](C)O1` [doxorubicin], the GI50 is 63 nM. Regarding `CC(=O)O[C@H]1C(=O)[C@@]2(C)[C@H]([C@H](OC(=O)c3ccccc3)[C@]3(O)C[C@H](OC(=O)[C@H](O)[C@@H](NC(=O)c4ccccc4)c4ccccc4)C(C)=C1C3(C)C)[C@]1(OC(C)=O)CO[C@@H]1C[C@@H]2O` [paclitaxel], the GI50 was 4 nM.

As for `NC(=O)NO` [hydroxyurea], the GI50 was 500000 nM.

With `O=c1[nH]cc(F)c(=O)[nH]1` [5-fluorouracil], the GI50 is 1000 nM.
